The values below come from ChEMBL document CHEMBL1140544, “Microbial transformation of three bufadienolides by Nocardia sp. and some insight for the cytotoxic structure-activity relationship (SAR)” (Bioorg Med Chem Lett, 2007).

Broadly, the IC50 is the point on the concentration scale where inhibition reaches its midpoint.

One test has as its system HepG2. The test is described as follows: Cytotoxicity against human HepG2 cells. It counts as functional, cell-based.
In a further test the test system is HeLa. The test is described as follows: Cytotoxicity against human HeLa cells. The format is functional, cell-based.
The subject of another test is BGC-823. The test is described as follows: Cytotoxicity against human BGC823 cells. It counts as cell-based.

For `CC(=O)O[C@H]1CC[C@@]2(C)[C@H](CC[C@@H]3[C@@H]2CC[C@]2(C)[C@@H](c4ccc(=O)oc4)[C@@H](OC(C)=O)[C@@H](O)[C@]32O)C1`, the results for the IC50 in the test on HepG2, in the test on HeLa and with BGC-823 were 3100 nM, 450 nM and 3370 nM, respectively.
The corresponding values for `C[C@]12CC[C@H](O)C[C@H]1CC[C@@H]1[C@@H]2CC[C@]2(C)[C@@H](c3ccc(=O)oc3)C[C@H]3O[C@]132` [BUFOGENIN] are more than 50000 nM, more than 50000 nM and 7890 nM.
As for `CC(=O)O[C@H]1CC[C@@]2(C)[C@H](CC[C@@H]3[C@@H]2CC[C@]2(C)[C@@H](c4ccc(=O)oc4)CC[C@]32O)C1`, the IC50 was 740 nM with HepG2, 1140 nM in the test on HeLa and 700 nM in the test on BGC-823.
With `C[C@]12CC[C@H](O)C[C@H]1CC[C@@H]1[C@@H]2CC[C@]2(C)[C@@H](c3ccc(=O)oc3)CC[C@]12O` [BUFALIN], the values for the IC50 with HepG2, in the test on HeLa and with BGC-823 were 640 nM, 730 nM and 990 nM, respectively.
In the same order, the values of `CC(=O)O[C@H]1C(=O)[C@@]2(C)[C@H]([C@H](OC(=O)c3ccccc3)[C@]3(O)C[C@H](OC(=O)[C@H](O)[C@@H](NC(=O)c4ccccc4)c4ccccc4)C(C)=C1C3(C)C)[C@]1(OC(C)=O)CO[C@@H]1C[C@@H]2O` [PACLITAXEL] are 820 nM, 20 nM and 1150 nM.
In the same order, the values of `CC(=O)O[C@H]1CC[C@@]2(C)[C@H](CC[C@@H]3[C@@H]2CC[C@]2(C)[C@@H](c4ccc(=O)oc4)C[C@H]4O[C@]342)C1` are more than 50000 nM, more than 50000 nM and 19800 nM.
In the same order, the values of `CC(=O)O[C@H]1[C@H]2O[C@]23[C@@H]2CC[C@@H]4C[C@@H](O)CC[C@]4(C)[C@H]2CC[C@]3(C)[C@H]1c1ccc(=O)oc1` [CINOBUFAGIN] are 5200 nM, 760 nM and 8500 nM.
Take `CC(=O)O[C@H]1CC[C@@]2(C)[C@H](CC[C@@H]3[C@@H]2CC[C@]2(C)[C@@H](c4ccc(=O)oc4)[C@@H](OC(C)=O)[C@H]4O[C@]342)C1`: the IC50 was 6440 nM with HepG2, 1090 nM with HeLa and 4110 nM in the test on BGC-823.
